# Measurements from the supplement of paper PMC10307832.
# Key:
# Experiment in all cases: relative viability (nuclei count vs DMSO), 5 days (fraction); higher = more cells survive
# [1] = compound: CCOC(=O)CCNc1cc(N2CCc3ccccc3CC2)nc(-c2ccccn2)n1 [GSK-J4] + COc1cccc2cc(-c3nc([C@H]4CC[C@H](C(=O)O)CC4)n4ncnc(N)c34)[nH]c12 [OSI-027] (partner 0.5 µM)
# Outline: (§1)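 Relative viability divides the nuclei count in treated wells by that in vehicle wells. Lung cancer cell lines were seeded in 1536-well plates, dosed by pin tool the next day, and fixed and stained after 5 days in one step with final 0.05% Triton X-100, 1% formaldehyde and 1 ug/ml Hoechst. Dosing was a single drug or a fixed anchor-drug dose plus five library-drug doses (not always all listed) in √10 steps, and values are medians of duplicate plates imaged at 4×.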
# [2] = compound: CCOC(=O)CCNc1cc(N2CCc3ccccc3CC2)nc(-c2ccccn2)n1 [GSK-J4] + C[C@@H](Oc1cc(-c2cnn(C3CCNCC3)c2)cnc1N)c1c(Cl)ccc(F)c1Cl [Crizotinib] (partner 1 µM)
# Outline: as §1
# [3] = compound: CCOC(=O)CCNc1cc(N2CCc3ccccc3CC2)nc(-c2ccccn2)n1 [GSK-J4] + Nc1ncn([C@H]2C[C@H](O)[C@@H](CO)O2)c(=O)n1 [Decitabine] (partner 2 µM)
# Outline: as §1
# [4] = compound: CN1CCC(CC1)OC2=CC(=C(C=C2)NC3=NC=C4C(=N3)N(C(=O)N4C)C5CCCC5)OC [AZ3146] + COc1cccc2cc(-c3nc([C@H]4CC[C@H](C(=O)O)CC4)n4ncnc(N)c34)[nH]c12 [OSI-027] (partner 0.5 µM)
# Outline: as §1
Cell Line,relative viability ([1]; first compound 0.5 µM),relative viability ([1]; first compound 1.581 µM),relative viability ([1]; first compound 15.81 µM),relative viability ([1]; first compound 50 µM),relative viability ([2]; first compound 0.5 µM),relative viability ([2]; first compound 1.581 µM),relative viability ([2]; first compound 15.81 µM),relative viability ([2]; first compound 50 µM),relative viability ([3]; first compound 0.5 µM),relative viability ([3]; first compound 1.581 µM),relative viability ([3]; first compound 5 µM),relative viability ([3]; first compound 15.81 µM),relative viability ([3]; first compound 50 µM),relative viability ([4]; first compound 0.08 µM),relative viability ([4]; first compound 0.253 µM),relative viability ([4]; first compound 0.8 µM),relative viability ([4]; first compound 2.53 µM),relative viability ([4]; first compound 8 µM),relative viability ([1]; first compound 5 µM),relative viability ([2]; first compound 5 µM)
NCI-H838,0.452,0.353,0.362,0.385,0.85,0.845,0.816,0.752,0.459,0.363,0.407,0.406,0.316,0.38,0.432,0.341,0.325,0.373,,
HCC-366,1.01,0.889,0.524,0.785,0.523,0.405,0.395,0.445,0.33,0.283,,0.283,0.277,0.781,0.85,0.863,0.865,0.884,,
NCI-H1651,0.79,0.734,0.706,0.721,0.854,0.737,0.817,0.85,0.599,0.622,0.599,0.537,0.508,0.657,0.745,0.66,0.692,0.639,0.687,0.92
ABC-1,0.533,0.442,0.357,0.336,1.03,0.953,0.81,0.343,1,1.16,1.05,0.883,0.795,0.466,0.484,0.454,0.614,0.472,0.441,1.17
LOU-NH91,0.749,0.721,0.69,0.792,0.756,0.711,0.695,0.712,0.789,0.798,0.703,0.774,0.805,0.726,0.61,0.7,0.702,0.745,0.56,0.674
NCI-H520,0.33,0.22,0.248,0.257,0.737,0.633,0.805,0.553,0.51,0.336,0.541,0.502,0.446,0.234,0.255,0.234,0.292,0.233,0.278,0.846
H3255,0.616,0.545,0.529,0.531,0.869,0.767,0.764,0.642,0.619,,0.593,0.463,0.409,0.654,0.483,0.594,0.612,0.638,0.627,0.855
